In patent US10654834B2 (Venenum Biodesign, LLC, priority 2016, dated 2020):

What was measured:
[1] = biological target: T1, mouse TGR5 receptor (Mus musculus, UniProt Q80SS6); experiment: Mouse TGR5 HTRF cAMP production assay (HEK293-EBNA cells, Cisbio cAMP HiRange kit); format: cell-based; settings: HEK293-EBNA cells overexpressing mouse TGR5, HTRF cAMP assay
T1 construct: host or cells: HEK293-EBNA (293 c18, ATCC CRL10852)
T1 sequence (Q80SS6 1-329): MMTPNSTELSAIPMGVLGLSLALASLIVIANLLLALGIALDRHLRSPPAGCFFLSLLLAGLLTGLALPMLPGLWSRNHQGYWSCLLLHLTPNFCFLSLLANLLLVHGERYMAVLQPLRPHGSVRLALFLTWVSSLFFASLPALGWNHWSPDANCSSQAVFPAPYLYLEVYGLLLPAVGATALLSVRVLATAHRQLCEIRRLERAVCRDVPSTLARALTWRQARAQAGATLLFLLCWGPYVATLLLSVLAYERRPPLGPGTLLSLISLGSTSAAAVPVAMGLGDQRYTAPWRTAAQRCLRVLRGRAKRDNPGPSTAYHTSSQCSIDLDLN
Method in brief: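 cAMP accumulation was read by competitive HTRF after 1 h room-temperature compound treatment, with a further 1 h conjugate incubation. Cells were mouse TGR5-overexpressing HEK293-EBNA in serum-free DMEM plus 500 μM IBMX. Compounds ran as 12-point half-log series in duplicate, and EC50 values were reported.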

[2] = biological target: T2, human TGR5 receptor (Homo sapiens, UniProt Q8TDU6); experiment: Human TGR5 cAMP production assay (hTGR5-CHO cells, DiscoveRx cAMP XS+ kit); format: cell-based; settings: luminescent cAMP assay, read-out: Human TGR5 Lum. cAMP Activity (EC50)
T2 construct: host or cells: CHO-K1 (hTGR5-CHO)
T2 sequence (Q8TDU6 1-330): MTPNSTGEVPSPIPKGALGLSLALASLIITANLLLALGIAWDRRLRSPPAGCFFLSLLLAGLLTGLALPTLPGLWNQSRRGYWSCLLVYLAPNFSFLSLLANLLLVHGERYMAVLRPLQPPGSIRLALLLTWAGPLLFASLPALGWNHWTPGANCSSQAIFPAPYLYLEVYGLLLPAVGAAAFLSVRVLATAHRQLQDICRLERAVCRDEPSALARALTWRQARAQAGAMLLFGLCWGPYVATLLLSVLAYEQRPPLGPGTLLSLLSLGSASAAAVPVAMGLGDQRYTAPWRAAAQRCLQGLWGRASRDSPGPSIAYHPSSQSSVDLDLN
Method in brief: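 EC50 values come from luminescent enzyme-complementation cAMP detection, read after overnight incubation. Beforehand, hTGR5-expressing CHO-K1 cells with IBMX and anti-cAMP antibody were exposed 1 h at room temperature to serially diluted (half-log) compounds.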

[3] = Pharmacokinetic profile in mice after oral gavage; format: in vivo, mouse; settings: mouse; fasted male Hilltop mice, 10 mg/kg oral gavage, plasma; read-out: Cmax
Experimental: Pharmacokinetic Profile in Mice
In this series of studies, the pharmacokinetic profile characteristics of compounds of the present invention were evaluated. The plasma concentration levels of the compounds were monitored in the blood stream (i.e., plasma) after oral gavage using Cmax, and area under the curve (AUC).
8 week old male Hilltop mice were fasted overnight. Animals were randomized into groups (n=9) by body weight. Mice were dosed with 10 mg/kg compound (in 20% PEG400/80% 0.5% carboxymethylcellulose (medium viscosity)+0.25% Tween-80) at a volume of […] through oral gavage. Blood was collected via orbital bleeding at 0, 0.25, 0.5, 1, 2, and 4 h post-dose, with no one mouse having more than 3 blood draws. Blood was collected in EDTA coated tubes. Samples were stored at −20° C. until analysis.
Quantitation of compound levels in plasma was accomplished by LC-MS/MS analysis. Standard curve and quality control samples were prepared in male CD-1 mouse plasma containing EDTA K^2+ as an anticoagulant at final concentrations ranging from 500 to 0.1 ng/mL. The plasma samples, calibration curve standards, and quality control samples were prepared in an identical method in a 96-well deep plate (1 mL) with a quenching solution (1:1 mixed acetonitrile:methanol containing the internal standard Reserpine @ 400 ng/mL). Low volume samples were supplemented with CD-1 mouse plasma. The plate was mixed on multi-tube vortexer for 1 min and centrifuged at 4000 rpm for 30 min at 4° C. (Sorvall® Super T21) before LC-MS/MS analysis. LC conditions were developed and optimized based on each compound as needed. The outlet of the column was coupled to AB Sciex 4000 QTrap Mass Spectrometer (AB Sciex, Brugg Switzerland). Detection was carried out using multiple reaction monitoring mode with positive-ion detection focusing. The pharmacokinetic parameters were derived from the plasma-time data and calculated using the standard non-compartmental method with WinNonlin (Pharsight, Mountain View, Calif.) or PK Solver (Comp. Meth. Prog. Biomed. (2010), 99, 306-314).
Values reported are the mean plasma concentration of three mice. […]

| EC50 [1] [nM] | EC50 [2] [nM] | Cmax [3] [ng/mL] | Structure (SMILES) |
| --- | --- | --- | --- |
| < 100 | < 100 | 22 | N#Cc1ccc(CCNC(=O)[C@@H]2CCCN2c2cc(N3CCC(CCCC(=O)N[C@H](CC(=O)O)C(=O)O)CC3)nc(C(F)(F)F)n2)cc1 [Compound 75, (R)-2-(4-(1-(6-((S)-2-((4-cyanophenethyl)carbamoyl)pyrrolidin-1-yl)-2-(trifluoromethyl)pyrimidin-4-yl)piperidin-4-yl)butanamido)succinic acid] |
| < 100 | < 100 | 3.6 | N=C(N)NCCC[C@H](NC(=O)CCCC1CCN(c2cc(N3CCC[C@H]3C(=O)NCCc3ccc(C(F)(F)F)cc3)nc(C(F)(F)F)n2)CC1)C(=O)O [Compound 74, (S)-5-guanidino-2-(4-(1-(2-(trifluoromethyl)-6-((S)-2-((4-(trifluoromethyl)phenethyl)carbamoyl)pyrrolidin-1-yl)pyrimidin-4-yl)piperidin-4-yl)butanamido)pentanoic acid] |
| < 100 | < 100 | 12 | N=C(N)NCCNC(=O)CCCC1CCN(c2cc(N3CCC[C@H]3C(=O)NCCc3ccc(C(F)(F)F)cc3)nc(C(F)(F)F)n2)CC1 [Compound 131, (S)-1-(6-(4-(4-((2-guanidinoethyl)-amino)-4-oxobutyl)piperidin-1-yl)-2-(trifluoromethyl)pyrimidin-4-yl)-N-(4-(trifluoromethyl)phenethyl)pyrrolidine-2-carboxamide] |
| < 100 | < 100 | 15 | N#Cc1ccc(CCNC(=O)[C@@H]2CCCN2c2cc(N3CCC(CCNS(=O)(=O)CCN)CC3)nc(C(F)(F)F)n2)cc1 [Compound 116, (S)-1-(6-(4-(2-(2-aminoethylsulfonamido)ethyl)piperidin-1-yl)-2-(trifluoromethyl)-pyrimidin-4-yl)-N-(4-cyanophenethyl)pyrrolidine-2-carboxamide] |
| < 100 | < 100 | 7.9 | N#Cc1ccc(CCNC(=O)[C@@H]2CCCN2c2cc(N3CCC(CCCNC(=O)NCS(=O)(=O)O)CC3)nc(C(F)(F)F)n2)cc1 [Compound 118, (S)-(3-(3-(1-(6-(2-((4-cyanophenethyl)carbamoyl)pyrrolidin-1-yl)-2-(trifluoromethyl)pyrimidin-4-yl)piperidin-4-yl)propyl)ureido)methanesulfonic acid] |
| < 100 | < 100 | 2.8 | N#Cc1ccc(CCNC(=O)[C@@H]2CCCN2c2cc(N3CCC(CCCC(=O)N[C@H](CCCNC(=N)N)C(=O)O)CC3)nc(C(F)(F)F)n2)cc1 [Compound 73, (R)-2-(4-(1-(6-((S)-2-((4-cyanophenethyl)carbamoyl)pyrrolidin-1-yl)-2-(trifluoromethyl)pyrimidin-4-yl)piperidin-4-yl)butanamido)-5-guanidinopentanoic acid] |
| < 100 | < 100 | 42 | N=C(N)NCCC[C@H](NC(=O)CCC1CCN(c2cc(N3CC[C@H]3C(=O)NCCc3ccc(C(F)(F)F)cc3)nc(C(F)(F)F)n2)CC1)C(=O)O [Compound 258, (S)-5-guanidino-2-(3-(1-(2-(trifluoromethyl)-6-((S)-2-((4-(trifluoromethyl)phenethyl)carbamoyl)azetidin-1-yl)pyrimidin-4-yl)piperidin-4-yl)propanamido)pentanoic acid] |
| < 100 | < 100 | 92 | O=C(O)CN1CCC(CCCC2CCN(c3cc(N4CC[C@H]4C(=O)NCCc4ccc(C(F)(F)F)cc4)nc(C(F)(F)F)n3)CC2)CC1 [Compound 281, (S)-2-(4-(3-(1-(2-(trifluoromethyl)-6-(2-((4-(trifluoromethyl)phenethyl)carbamoyl)-azetidin-1-yl)pyrimidin-4-yl)piperidin-4-yl)propyl)piperidin-1-yl)acetic acid] |
| < 100 | < 100 | 55 | N#Cc1ccc(CCNC(=O)[C@@H]2CCCN2c2cc(N3CCC(OCC#CCO)CC3)nc(C(F)(F)F)n2)cc1 [Compound 26] |
| < 100 | < 100 | 12 | N#Cc1ccc(CCNC(=O)[C@@H]2CCCN2c2cc(N3CCC(CCCC(=O)NCCNc4ncc(C(=O)O)cn4)CC3)nc(C(F)(F)F)n2)cc1 [Compound 98, (S)-2-((2-(4-(1-(6-(2-((4-cyanophenethyl)carbamoyl)pyrrolidin-1-yl)-2-(trifluoromethyl)pyrimidin-4-yl)piperidin-4-yl)butanamido)ethyl)-amino)pyrimidine-5-carboxylic acid] |
| < 100 | < 100 | 5.3 | O=C(CCCC1CCN(c2cc(N3CCC[C@H]3C(=O)NCCc3ccc(C(F)(F)F)cc3)nc(C(F)(F)F)n2)CC1)NCCNc1cc(N(CCO)CCO)ncn1 [Compound 111] |
| < 100 | < 100 | 11 | N#Cc1ccc(CCNC(=O)[C@@H]2CCCN2c2cc(N3CCC(CCCC(=O)NCCOCCOCCNC(=N)N)CC3)nc(C(F)(F)F)n2)cc1 [Compound 127, (S)-1-(6-(4-(1-amino-1-imino-12-oxo-5,8-dioxa-2,11-diazapentadecan-15-yl)piperidin-1-yl)-2-(trifluoromethyl)-pyrimidin-4-yl)-N-(4-cyanophenethyl)-pyrrolidine-2-carboxamide] |
| < 100 | < 100 | 6.5 | N#Cc1ccc(CCNC(=O)[C@@H]2CCCN2c2cc(N3CCC(CCNS(=O)(=O)CCNc4ncc(C(=O)O)cn4)CC3)nc(C(F)(F)F)n2)cc1 [Compound 117, (S)-2-((2-(N-(2-(1-(6-(2-((4-cyanophenethyl)carbamoyl)pyrrolidin-1-yl)-2-(trifluoromethyl)pyrimidin-4-yl)piperidin-4-yl)ethyl)sulfamoyl)ethyl)amino)-pyrimidine-5-carboxylic acid] |
| < 100 | < 100 | 22 | O=C(CCCC1CCN(c2cc(N3CCC[C@H]3C(=O)NCCc3ccc(Cl)cc3)nc(C(F)(F)F)n2)CC1)NCS(=O)(=O)O [Compound 137, (S)-(4-(1-(6-(2-((4-chlorophenethyl)-carbamoyl)pyrrolidin-1-yl)-2-(trifluoromethyl)pyrimidin-4-yl)-piperidin-4-yl)butanamido)-methanesulfonic acid] |
| < 100 | < 100 | 64 | O=C(CCCC1CCN(c2cc(N3CC[C@H]3C(=O)NCCc3ccc(C(F)(F)F)cc3)nc(C(F)(F)F)n2)CC1)NCS(=O)(=O)O [Compound 255, (S)-(4-(1-(2-(trifluoromethyl)-6-(2-((4-(trifluoromethyl)phenethyl)carbamoyl)azetidin-1-yl)pyrimidin-4-yl)piperidin-4-yl)butanamido)methanesulfonic acid] |
| < 100 | < 100 | 26 | O=C(CCCC1CCN(c2cc(N3CCC[C@H]3C(=O)NCCc3ccc(C(F)(F)F)cc3)nc(C(F)(F)F)n2)CC1)NCCNS(=O)(=O)c1ccc(C(=O)O)cc1 [Compound 94, (S)-4-(N-(2-(4-(1-(2-(trifluoromethyl)-6-(2-((4-(trifluoromethyl)phenethyl)-carbamoyl)-pyrrolidin-1-yl)pyrimidin-4-yl)piperidin-4-yl)butanamido)ethyl)-sulfamoyl)benzoic acid] |
